Reference: patent US20110092591A1, “PHENYL-PRENYL DERIVATIVES, OF MARINE AND SYNTHETIC ORIGIN, FOR THE TREATMENT OF COGNITIVE, NEURODEGENERATIVE OR NEURONAL DISEASES OR DISORDERS” (NOSCIRA S.A., priority 2008, published 2011)
Blank lines part the entries; values can stand above or below the compound they belong to.

Key:
Format in all cases: biochemical
[1] = target: T1, rhBACE-1 β-Secretase recombinant human (Homo sapiens, UniProt P56817); assay: BACE assay (FRET, fluorogenic peptide substrate); conditions: for % BACE Activity: percentage of the enzyme activity (remaining)
T1 construct: purchased R&D Systems 931-AS
T1 sequence (P56817 46-457 limits assumed): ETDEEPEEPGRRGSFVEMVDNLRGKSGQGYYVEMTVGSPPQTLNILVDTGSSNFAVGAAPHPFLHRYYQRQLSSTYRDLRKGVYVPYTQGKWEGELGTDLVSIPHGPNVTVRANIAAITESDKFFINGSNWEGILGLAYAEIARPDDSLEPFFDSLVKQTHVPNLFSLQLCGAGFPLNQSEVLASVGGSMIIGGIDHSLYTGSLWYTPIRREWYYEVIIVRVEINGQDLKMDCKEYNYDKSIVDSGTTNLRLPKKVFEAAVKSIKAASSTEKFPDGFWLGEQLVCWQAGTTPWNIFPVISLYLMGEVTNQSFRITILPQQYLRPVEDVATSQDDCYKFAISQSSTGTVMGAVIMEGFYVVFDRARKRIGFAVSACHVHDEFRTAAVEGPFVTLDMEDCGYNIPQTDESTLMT
From the text: The aim of this assay is to determine if a compound, either synthetic or of marine origin, is a BACE-1 inhibitor, to avoid the formation of Aβ. This assay is based on FRET technology (Fluorescence Resonance Energy Transfer). FRET is used to measure cleavage of a peptide substrate, among other uses. […] When a substrate peptide cleavage occurs, the energy balance is broken and all the donor fluorescence can be observed. The increase in fluorescence is linearly related to the rate of proteolysis (Gordon, G W et al., 1998). In this assay the reaction occurs between an enzyme, purified BACE-1, and a fluorogenic peptidic substrate who present the “Swedish mutation”. The peptide cleavage by BACE-1 produces fluorescence energy and enzymatic activity can be quantified.
The reagents which are used in this assay are the following:
rhBACE-1 β-Secretase recombinant human (R&D Systems. Ref. 931-AS).
Fluorogenic Peptide Substrate IV (R&D Systems. Ref. ES004).
Beta-SECRETASE INHIBITOR H-4848. (BACHEM. Ref. H-4848.0001).
The assay is carried out in a 96 wells microplate. The final concentration of substrate is 3.5 μM per well, and the enzyme concentration is 0.5 μg/ml. The final volume of the assay is 100 μl per well and all reagents are diluted in Reaction Buffer.
The compounds are tested at a concentration of 10^−5 and 10^−6 M. The control in the assay is the commercial inhibitor β-Secretase inhibitor H-4848 from BACHEM, which is tested at 300 nM. All the samples and controls are studied by duplicate.
The plate is mixed gently and changes in the fluorescence are measured using a fluorimeter plate reader, with 320 nm excitation filter and 405 nm emission filter. The temperature should be preferably maintained between 25 and 30° C. Measurements are carried out every ten minutes during an hour. The first measure is subtracted from the last to calculate the fluorescence increase, evaluating the enzymatic activity. The 100% activity is calculated as the mean of the results of wells without sample or inhibitor.
In the cases where abnormal effects in fluorescence were detected, BACE inhibition activity was assayed using BACE-1 (beta-Secretase) FRET ASSAY KIT (Invitrogen, Ref. P2985). Fluorescence was measured with a fluorimeter plate reader, with 544 nm excitation filter and 580 nm emission filter.
Further information regarding this assay may be found in the following references, which are incorporated by reference into the present application: • Andrau, D et al; “BACE1- and BACE2-expressing human cells: characterization of beta-Amyloid precursor protein-derived catabolites, design of a novel fluorimetric assay, and identification of new in vitro inhibitors”. J Biol Chem. 2003 Jul. 11; 278(28):25859-66. • Gordon, G W et al; “Quantitative fluorescence resonance energy transfer measurements using fluorescence microscopy.” Biophys J. 1998 May; 74:2702-13.
The compounds of formula (I) of the present invention where submitted to the above indicated assay, in order to determine their BACE activity inhibition. The results are indicated in Table I, in percentage of the enzyme activity.

[2] = target: T2, Recombinant human glycogen synthase kinase 3 beta (Homo sapiens, UniProt P49841); assay: GSK-3 beta inhibition assay (33P-ATP, GS-2 peptide); conditions: 0.5 h, percentage of the enzyme activity (remaining), read-out: % Act. GSK-3 beta; for remaining activity at 25 µM: compound at 25 μM; for remaining activity at 50 µM: compound at 50 μM
T2 sequence (P49841 whole entry): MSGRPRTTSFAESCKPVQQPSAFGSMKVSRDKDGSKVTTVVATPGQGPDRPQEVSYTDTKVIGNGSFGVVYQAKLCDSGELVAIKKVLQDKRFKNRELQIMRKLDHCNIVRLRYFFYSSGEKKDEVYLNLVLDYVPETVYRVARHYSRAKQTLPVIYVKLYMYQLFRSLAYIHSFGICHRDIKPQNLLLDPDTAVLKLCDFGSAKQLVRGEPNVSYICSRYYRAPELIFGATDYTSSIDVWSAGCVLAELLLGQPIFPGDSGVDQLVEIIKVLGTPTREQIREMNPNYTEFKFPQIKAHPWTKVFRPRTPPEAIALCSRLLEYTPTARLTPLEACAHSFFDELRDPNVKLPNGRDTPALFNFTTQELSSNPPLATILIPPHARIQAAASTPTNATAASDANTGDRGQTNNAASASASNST
Procedure: The GSK-3 beta activity of the compounds of formula (I) according to the present invention was determined by incubation of a mixture of recombinant human GSK-3 enzyme, a phosphate source and GSK-3 substrate in the presence and in the absence of the corresponding test compound, and by measuring the GSK-3 activity of this mixture. The compounds where tested at final concentrations of 25 and 50 μM.
Recombinant human glycogen synthase kinase 3 beta was assayed in MOPS 11 mM, pH 7.4, EDTA 0.2 mM, EGTA 1.25 mM, MgCl2 26.25 mM and sodium orthovanadate 0.25 mM in the presence of 62.5 μM of Phospho-Glycogen Synthase Peptide-2 (GS-2), 0.5 μCi gamma-^33P-ATP and unlabelled ATP at a final concentration of 12.5 μM. The final assay volume was 20 μl. After incubation for 30 minutes at 30° C., 15 μl aliquots were spotted onto P81 phosphocellulose papers. Filters were washed four times for at least 10 minutes each and counted with 1.5 ml of scintillation cocktail in a scintillation counter.
The compounds of formula (I) of the present invention where submitted to the above indicated assay, in order to determine their GSK-3 inhibition activity. The results are indicated in Table II, in percentage of the enzyme activity.

[3] = target: T2, Recombinant human glycogen synthase kinase 3 beta; assay: as above

- % BACE Activity ([1]; compound at 1 μM): 45 ± 21%
- % BACE Activity ([1]; compound at 10 μM): 0%
- remaining activity at 25 µM [2]: 5.43%
- remaining activity at 50 µM [2]: 2.82%
- IC50 [3]: 4.42 µM
SMILES: CC(C)=CCC/C(C)=C/CC/C(C)=C/CC/C(C)=C/Cc1cc(C(=O)O)ccc1O [Compound 1, (2E,6E,10E)-4-Hydroxy-3-(3,7,11,15-tetramethyl-hexadeca-2,6,10,14-tetraenyl)-benzoic acid]

- % BACE Activity ([1]; compound at 1 μM): 100%
- % BACE Activity ([1]; compound at 10 μM): 13 ± 14%
- remaining activity at 25 µM [2]: 37.7%
- remaining activity at 50 µM [2]: 5.04%
- IC50 [3]: 12.5 µM
SMILES: CC(C)=CCC/C(C)=C/CC/C(C)=C/CC/C(C)=C/Cc1cc(O)ccc1O [Compound 2]

- remaining activity at 25 µM [2]: 17.8%
- remaining activity at 50 µM [2]: 17.7%
- IC50 [3]: 9.97 µM
SMILES: CC(C)=CCC/C(C)=C/CC/C(C)=C/CC/C(C)=C/CC/C(C)=C/Cc1cc(O)ccc1O [Compound 4]

- remaining activity at 50 µM [2]: 70.8%
SMILES: COC(=O)c1ccc(O)c(C/C=C(\C)CC/C=C(\C)CC/C=C(\C)CCC=C(C)C)c1 [Compound 5]

- % BACE Activity ([1]; compound at 1 μM): 94 ± 22%
- % BACE Activity ([1]; compound at 10 μM): 60 ± 16%
- IC50 ([1]; given in M): 37 µM
- remaining activity at 25 µM [2]: 61.3%
- remaining activity at 50 µM [2]: 5.75%
SMILES: COCOc1ccc(C=O)cc1C/C=C(\C)CC/C=C(\C)CCC=C(C)C [Compound 9, (2E,6E)-4-methoxymethoxy-3-(3,7,11-trimethyl-dodeca-2,6,10-trienyl)-benzaldehyde]

- % BACE Activity ([1]; compound at 1 μM): 57 ± 2%
- % BACE Activity ([1]; compound at 10 μM): 41 ± 4%
- remaining activity at 25 µM [2]: 9.26%
- remaining activity at 50 µM [2]: 0.95%
- IC50 [3]: 7.87 µM
SMILES: CC(C)=CCC/C(C)=C/CC/C(C)=C/Cc1cc(C=O)ccc1O [Compound 12]

- % BACE Activity ([1]; compound at 1 μM): 100%
- % BACE Activity ([1]; compound at 10 μM): 88 ± 8.5%
- remaining activity at 25 µM [2]: 52%
- remaining activity at 50 µM [2]: 4.71%
- IC50 [3]: 17.4 µM
SMILES: CC(C)=CCC/C(C)=C/CC/C(C)=C/CC/C(C)=C/Cc1cc(C=O)ccc1O [Compound 13]

- % BACE Activity ([1]; compound at 1 μM): 100%
- % BACE Activity ([1]; compound at 10 μM): 100%
- remaining activity at 25 µM [2]: 32.8%
- remaining activity at 50 µM [2]: 13.3%
SMILES: CCNC(=O)c1ccc(O)c(C/C=C(\C)CC/C=C(\C)CC/C=C(\C)CCC=C(C)C)c1 [Compound 18]

Continued, compound first:

SMILES: C/C(=C\CC/C(C)=C/CC/C(C)=C/Cc1cc(C(=O)O)ccc1O)C/C=C/C(C)(C)O [Compound 3]
- remaining activity at 25 µM [2]: 52.9%
- remaining activity at 50 µM [2]: 4.19%
- IC50 [3]: 55.8 µM

SMILES: CC(C)=CCc1cc(C(=O)O)ccc1O [Compound 6]
- % BACE Activity ([1]; compound at 1 μM): 100%
- % BACE Activity ([1]; compound at 10 μM): 100%
- remaining activity at 25 µM [2]: 71.6%
- remaining activity at 50 µM [2]: 78%

SMILES: COCOc1ccc(C=O)cc1C/C=C(\C)CCC=C(C)C [Compound 8, (2E)-3-(3,7-dimethyl-octa-2,6-dienyl)-4-methoxymethoxy-benzaldehyde]
- % BACE Activity ([1]; compound at 1 μM): 100%
- % BACE Activity ([1]; compound at 10 μM): 42 ± 5%
- remaining activity at 25 µM [2]: 33.5%
- remaining activity at 50 µM [2]: 3.08%
- IC50 [3]: 16 µM

SMILES: CC(C)=CCC/C(C)=C/Cc1cc(C=O)ccc1O [Compound 11]
- % BACE Activity ([1]; compound at 1 μM): 91 ± 6%
- % BACE Activity ([1]; compound at 10 μM): 44 ± 12%
- remaining activity at 25 µM [2]: 12.1%
- remaining activity at 50 µM [2]: 1.07%
- IC50 [3]: 8.6 µM

SMILES: CC(C)=CCC/C(C)=C/Cc1cc(C(=O)O)ccc1O [Compound 14]
- % BACE Activity ([1]; compound at 1 μM): 100%
- % BACE Activity ([1]; compound at 10 μM): 84 ± 6%
- remaining activity at 25 µM [2]: 75.7%
- remaining activity at 50 µM [2]: 60.3%

SMILES: CC(C)=CCC/C(C)=C/CC/C(C)=C/Cc1cc(C(=O)O)ccc1O [Compound 15]
- % BACE Activity ([1]; compound at 1 μM): 100%
- % BACE Activity ([1]; compound at 10 μM): 5 ± 9%
- remaining activity at 25 µM [2]: 24.6%
- remaining activity at 50 µM [2]: 3.27%
- IC50 [3]: 11 µM

SMILES: CC(C)=CCC/C(C)=C/CC/C(C)=C/CC/C(C)=C/Cc1cc(C(=O)OCc2ccccc2)ccc1OCc1ccccc1 [Compound 17]
- % BACE Activity ([1]; compound at 1 μM): 100%
- % BACE Activity ([1]; compound at 10 μM): 100%
- remaining activity at 25 µM [2]: 71.9%
- remaining activity at 50 µM [2]: 52.1%

SMILES: COCOC(=O)c1ccc(OC(C)=O)c(C/C=C(\C)CC/C=C(\C)CC/C=C(\C)CCC=C(C)C)c1 [Compound 20, (2E,6E,10E)-4-Acetoxy-3-(3,7,11,15-tetramethyl-hexadeca-2,6,10,14-tetraenyl)-benzoic acid methoxymethyl ester]
- % BACE Activity ([1]; compound at 1 μM): 100%
- % BACE Activity ([1]; compound at 10 μM): 100%
- remaining activity at 25 µM [2]: 51%
- remaining activity at 50 µM [2]: 17.7%

SMILES: COCOc1ccc(C(=O)O)cc1C/C=C(\C)CCC=C(C)C [Compound 21]
- % BACE Activity ([1]; compound at 1 μM): 88 ± 9%
- % BACE Activity ([1]; compound at 10 μM): 27 ± 3%
- remaining activity at 25 µM [2]: 100%
- remaining activity at 50 µM [2]: 79.9%

SMILES: CC(C)=CCC/C(C)=C/CC/C(C)=C/Cc1cc(C=O)ccc1OCc1ccccc1 [Compound 23]
- % BACE Activity ([1]; compound at 1 μM): 99 ± 2%
- % BACE Activity ([1]; compound at 10 μM): 88 ± 13%
- remaining activity at 25 µM [2]: 2.22%
- remaining activity at 50 µM [2]: 2.01%

SMILES: CC(C)=CCC/C(C)=C/CC/C(C)=C/CC/C(C)=C/Cc1cc(C(=O)OCc2ccccc2)ccc1O [Compound 24]
- % BACE Activity ([1]; compound at 1 μM): 100%
- % BACE Activity ([1]; compound at 10 μM): 100%
- remaining activity at 25 µM [2]: 49.7%
- remaining activity at 50 µM [2]: 22.8%

SMILES: CC(C)=CCC/C(C)=C/CC/C(C)=C/Cc1cc(C(=O)O)ccc1OCc1ccccc1 [Compound 26]
- % BACE Activity ([1]; compound at 1 μM): 100%
- % BACE Activity ([1]; compound at 10 μM): 100%
- remaining activity at 25 µM [2]: 71.4%
- remaining activity at 50 µM [2]: 41%

SMILES: CC(C)=CCC/C(C)=C/Cc1cc(C(=O)O)ccc1OCc1ccccc1 [Compound 27]
- % BACE Activity ([1]; compound at 1 μM): 34 ± 27%
- % BACE Activity ([1]; compound at 10 μM): 0 ± 0%
- remaining activity at 25 µM [2]: 85.1%
- remaining activity at 50 µM [2]: 65.8%
